# ChEMBL document CHEMBL6109035, “Anticonvulsant effects of new coumarin-2,3-dimethylbutadiene Diels-Alder cycloadducts in the pentylenetetrazole-induced clonic seizures in mice” (Bioorg Med Chem Lett, 2025)
# Experiments:
# Mus musculus [1] = assay: Antiseizure activity in PTZ-induced male CD-1 mouse clonic seizure model assessed as increase in latency time at 15 mg/kg, ip pretreated with compound followed by PTZ-induction; type: functional
# Mus musculus [2] = assay: Antiseizure activity in PTZ-induced male CD-1 mouse clonic seizure model assessed as improvement in locomotor activity by measuring fold change at 15 mg/kg, ip pretreated with compound followed by PTZ-induction by open field test; type: functional
# Mus musculus [3] = assay: Antiseizure activity in PTZ-induced male CD-1 mouse clonic seizure model assessed as increase in latency time by measuring fold change at 15 mg/kg, ip pretreated with compound followed by PTZ-induction; type: functional
# Mus musculus [4] = assay: Antiseizure activity in PTZ-induced male CD-1 mouse clonic seizure model assessed as improvement in locomotor activity by measuring total events at 15 mg/kg, ip pretreated with compound followed by PTZ-induction by open field test; type: functional
# [5] = Toxicity in male CD-1 mouse assessed as piloerection at 12 to 13 mg/kg, ip; type: organism-based; conditions: in vivo, dose 12-13 mg/kg
# Mus musculus [6] = assay: Antiseizure activity in PTZ-induced male CD-1 mouse clonic seizure model assessed as increase in latency time by measuring fold change at 13 mg/kg, ip pretreated with compound followed by PTZ-induction; type: functional
# Mus musculus [7] = assay: Antiseizure activity in PTZ-induced male CD-1 mouse clonic seizure model assessed as improvement in locomotor activity by measuring total events at 13 mg/kg, ip pretreated with compound followed by PTZ-induction by open field test; type: functional
# [8] = Toxicity in male CD-1 mouse assessed as stimulation of appetite at 12 to 13 mg/kg, ip; type: organism-based; conditions: in vivo, dose 12-13 mg/kg
# Mus musculus [9] = assay: Antiseizure activity in PTZ-induced male CD-1 mouse clonic seizure model assessed as increase in latency time at 13 mg/kg, ip pretreated with compound followed by PTZ-induction; type: functional
# [10] = Toxicity in male CD-1 mouse assessed as sedation at 12 to 13 mg/kg, ip; type: organism-based; conditions: in vivo, dose 12-13 mg/kg
# Mus musculus [11] = assay: Antiseizure activity in PTZ-induced male CD-1 mouse clonic seizure model assessed as improvement in locomotor activity by measuring fold change at 13 mg/kg, ip pretreated with compound followed by PTZ-induction; type: functional
# Mus musculus [12] = assay: Antiseizure activity in PTZ-induced male CD-1 mouse clonic seizure model assessed as increase in latency time at 12 mg/kg, ip pretreated with compound followed by PTZ-induction; type: functional
# Mus musculus [13] = assay: Antiseizure activity in PTZ-induced male CD-1 mouse clonic seizure model assessed as improvement in locomotor activity by measuring fold change at 12 mg/kg, ip pretreated with compound followed by PTZ-induction; type: functional
# Mus musculus [14] = assay: Antiseizure activity in PTZ-induced male CD-1 mouse clonic seizure model assessed as increase in latency time by measuring fold change at 12 mg/kg, ip pretreated with compound followed by PTZ-induction; type: functional
# Mus musculus [15] = assay: Antiseizure activity in PTZ-induced male CD-1 mouse clonic seizure model assessed as improvement in locomotor activity by measuring total events at 12 mg/kg, ip pretreated with compound followed by PTZ-induction by open field test; type: functional
SMILES,Time (Mus musculus [1]) [s],fold change (FC) (Mus musculus [2]),fold change (FC) (Mus musculus [3]),Activity (Mus musculus [4]),Activity [5],fold change (FC) (Mus musculus [6]),Activity (Mus musculus [7]),Activity [8],Time (Mus musculus [9]) [s],Activity [10],fold change (FC) (Mus musculus [11]),Time (Mus musculus [12]) [s],fold change (FC) (Mus musculus [13]),fold change (FC) (Mus musculus [14]),Activity (Mus musculus [15])
Cc1c(C(=O)c2cccc3ccccc23)c2cccc3c2n1C(CN1CCOCC1)CO3 (stereo not given),279,3,~4,3079,–,–,–,–,–,–,–,–,–,–,–
CC1=C(C)C[C@]2(C(=O)c3ccc(Cl)cc3)C(=O)Oc3ccccc3[C@@H]2C1,–,–,–,–,Toxic,~4,2790,Toxic,266,Toxic,2.4,–,–,–,–
CC1=C(C)C[C@]2(C(=O)c3ccccc3)C(=O)Oc3ccccc3[C@@H]2C1,–,–,–,–,Toxic,–,–,Toxic,–,Toxic,–,264,2.4,~4,2747
CC1=C(C)C[C@]2(C(=O)c3ccc(C)cc3)C(=O)Oc3ccccc3[C@@H]2C1,–,–,–,–,Toxic,–,–,Toxic,–,Toxic,–,269,2.4,~4,2876
